From patent publication US9062078B2, “Substituted 7-azabicyles and their use as orexin receptor modulators” (priority 2013, dated 2015) come the findings set out here.

Like-named read-outs stand apart in the source and are kept apart here.

The target of assay [1] is human orexin 2 receptor (Homo sapiens (Human), UniProt O43614). In words: Human orexin 2 receptor radioligand binding (competitive, [3H]-EMPA, HEK293 cell preparations).
Assay [2] has as its target rat orexin 1 receptor (Rattus norvegicus, UniProt P56718). In words: Rat orexin 1 receptor radioligand binding (competitive, [3H]-SB674042, HEK293 cell preparations).
[3] abbreviates: human orexin 2 receptor, [3H]-EMPA competition binding, read-out: hOX2 Ki (nm).
Where [4] appears, read: rat orexin 1 receptor, [3H]-SB674042 competition binding, read-out: rOX1 Ki (nm).

Chain of human orexin 2 receptor (O43614 whole entry): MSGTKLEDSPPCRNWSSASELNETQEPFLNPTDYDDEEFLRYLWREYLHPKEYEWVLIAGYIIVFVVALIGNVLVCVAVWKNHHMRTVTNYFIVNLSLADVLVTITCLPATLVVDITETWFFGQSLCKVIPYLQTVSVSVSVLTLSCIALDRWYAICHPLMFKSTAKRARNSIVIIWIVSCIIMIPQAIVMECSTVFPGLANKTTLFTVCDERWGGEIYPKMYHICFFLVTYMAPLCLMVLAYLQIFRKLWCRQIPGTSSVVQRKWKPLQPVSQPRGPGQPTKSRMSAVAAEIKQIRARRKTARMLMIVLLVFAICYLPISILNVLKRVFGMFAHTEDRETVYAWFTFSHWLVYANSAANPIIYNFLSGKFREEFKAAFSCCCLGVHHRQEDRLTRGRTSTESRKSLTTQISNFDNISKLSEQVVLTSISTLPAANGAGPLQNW

For `Cc1ccc(-n2nccn2)c(C(=O)N2C3CCC2C(COc2ccc(C(F)(F)F)cn2)C3)n1` (racemic) [Example 47, (±)-(6-methyl-3-(2H-1,2,3-triazol-2-yl)pyridin-2-yl)(2-(((5-(trifluoromethyl)pyridin-2-yl)oxy)methyl)-7-azabicyclo[2.2.1]heptan-7-yl)methanone], the inhibition constant Ki in assay [1] (setting [3]) turned out to be 418 nM; in assay [2] (rOX1 Ki (nm)), 460 nM.
`CCOc1ccc(C)nc1C(=O)N1C2CCC1C(COc1ccc(C(F)(F)F)cn1)C2` (racemic) [Example 48, (±)-(3-ethoxy-6-methylpyridin-2-yl)(2-(((5-(trifluoromethyl)pyridin-2-yl)oxy)methyl)-7-azabicyclo[2.2.1]heptan-7-yl)methanone]: the inhibition constant Ki stood at 4700 nM in assay [1] (hOX2 Ki (nm)) and 3900 nM in assay [2] (setting [4]).
With `COc1c(F)cccc1C(=O)N1C2CCC1C(COc1ccc(Br)cn1)C2` (racemic) [Example 50, (±)-(2-(((5-bromopyridin-2-yl)oxy)methyl)-7-azabicyclo[2.2.1]heptan-7-yl)(3-fluoro-2-methoxyphenyl)methanone], the Ki in assay [1] (setting [3]) was 4400 nM; in assay [2] (setting [4]), 460 nM.
Take `CCOc1ccc(C)nc1C(=O)N1C2CCC1C(COc1ccc(Br)cn1)C2` (racemic) [Example 51, (±)-(2-(((5-bromopyridin-2-yl)oxy)methyl)-7-azabicyclo[2.2.1]heptan-7-yl)(3-ethoxy-6-methylpyridin-2-yl)methanone]: the Ki in assay [1] (hOX2 Ki (nm)) was found to be 1800 nM; in assay [2] (rOX1 Ki (nm)) it was 974 nM.
For the compound `O=C(c1cccc(F)c1-c1ncccn1)N1C2CCC1C(COc1ccccn1)C2` (racemic) [Example 52, (±)-(3-fluoro-2-(pyrimidin-2-yl)phenyl)(2-((pyridin-2-yloxy)methyl)-7-azabicyclo[2.2.1]heptan-7-yl)methanone], the inhibition constant Ki in assay [1] (hOX2 Ki (nm)) came to 2300 nM; in assay [2] (setting [4]), 350 nM.
Consider `Cc1ccc(-n2nccn2)c(C(=O)N2C3CCC2C(COc2cccnn2)C3)n1` (racemic) [Example 53, (±)-(6-methyl-3-(2H-1,2,3-triazol-2-yl)pyridin-2-yl)(2-((pyridazin-3-yloxy)methyl)-7-azabicyclo[2.2.1]heptan-7-yl)methanone], for which the Ki is greater than 10000 nM in assay [1] (hOX2 Ki (nm)) and 2200 nM in assay [2] (setting [4]).
For `Cc1ccc(-n2nccn2)c(C(=O)N2C3CCC2C(COc2cccnc2C)C3)n1` (racemic) [Example 54, (±)-(6-methyl-3-(2H-1,2,3-triazol-2-yl)pyridin-2-yl)(2-(((2-methylpyridin-3-yl)oxy)methyl)-7-azabicyclo[2.2.1]heptan-7-yl)methanone], the Ki was found to be 2200 nM in assay [1] (setting [3]) and 3500 nM in assay [2] (rOX1 Ki (nm)).
For the compound `Cc1ccc(-n2nccn2)c(C(=O)N2C3CCC2C(COc2ccnn2C)C3)n1` (racemic) [Example 56, (±)-(2-(((1-methyl-1H-pyrazol-5-yl)oxy)methyl)-7-azabicyclo[2.2.1]heptan-7-yl)(6-methyl-3-(2H-1,2,3-triazol-2-yl)pyridin-2-yl)methanone], the inhibition constant (Ki) in assay [1] (hOX2 Ki (nm)) and in assay [2] (setting [4]) was greater than 10000 nM throughout.
With `Cc1ccc(-n2nccn2)c(C(=O)N2C3CCC2C(COc2ccncc2)C3)n1` (racemic) [Example 57, (±)-(6-methyl-3-(2H-1,2,3-triazol-2-yl)pyridin-2-yl)(2-((pyridin-4-yloxy)methyl)-7-azabicyclo[2.2.1]heptan-7-yl)methanone], the Ki in assay [1] (setting [3]) was found to be 7300 nM; in assay [2] (setting [4]), 1000 nM.
As to `Cc1ccc(-n2nccn2)c(C(=O)N2C3CCC2C(COc2ncccn2)C3)n1` (racemic) [Example 59, (±)-(6-methyl-3-(2H-1,2,3-triazol-2-yl)pyridin-2-yl)(2-((pyrimidin-2-yloxy)methyl)-7-azabicyclo[2.2.1]heptan-7-yl)methanone], the inhibition constant (Ki) in assay [1] (hOX2 Ki (nm)) stood at 4900 nM; in assay [2] (setting [4]), 2600 nM.
For the compound `Cc1ccc(-n2nccn2)c(C(=O)N2C3CCC2C(COc2cnccn2)C3)n1` (racemic) [Example 60, (±)-(6-methyl-3-(2H-1,2,3-triazol-2-yl)pyridin-2-yl)(2-((pyrazin-2-yloxy)methyl)-7-azabicyclo[2.2.1]heptan-7-yl)methanone], the Ki in assay [1] (hOX2 Ki (nm)) is greater than 10000 nM; in assay [2] (setting [4]), 7800 nM.
Consider `Cc1ccc(-n2nccn2)c(C(=O)N2C3CCC2C(COc2ccncn2)C3)n1` (racemic) [Example 61, (±)-(6-methyl-3-(2H-1,2,3-triazol-2-yl)pyridin-2-yl)(2-((pyrimidin-4-yloxy)methyl)-7-azabicyclo[2.2.1]heptan-7-yl)methanone], for which the values for the inhibitory constant (Ki) in assay [1] (hOX2 Ki (nm)) and in assay [2] (rOX1 Ki (nm)) were greater than 10000 nM and 2800 nM, respectively.
Turning to `Cc1ccc(-c2ncccc2C)c(C(=O)N2C3CCC2C(COc2ccc(F)cn2)C3)n1` (racemic) [Example 65, (±)-(3,6′-dimethyl-[2,3′-bipyridin]-2′-yl)(2-(((5-fluoropyridin-2-yl)oxy)methyl)-7-azabicyclo[2.2.1]heptan-7-yl)methanone], the Ki was 6200 nM in assay [1] (setting [3]) and 1440 nM in assay [2] (rOX1 Ki (nm)).
As to `CCOc1ncc2ccccc2c1C(=O)N1[C@@H]2CC[C@H]1[C@H](Nc1cnc(C(F)(F)F)cn1)C2` [Example 246, (3-ethoxyisoquinolin-4-yl)((1S,2R,4R)-2-((5-(trifluoromethyl)pyrazin-2-yl)amino)-7-azabicyclo[2.2.1]heptan-7-yl)methanone], the Ki in assay [1] (setting [3]) was found to be 1020 nM.
For the compound `O=C(c1cccc(F)c1-n1nccn1)N1[C@@H]2CC[C@H]1[C@H](Nc1cnc(C(F)(F)F)cn1)C2` [Example 252, (3-fluoro-2-(2H-1,2,3-triazol-2-yl)phenyl)((1S,2R,4R)-2-((5-(trifluoromethyl)pyrazin-2-yl)amino)-7-azabicyclo[2.2.1]heptan-7-yl)methanone], the inhibitory constant (Ki) in assay [1] (setting [3]) stood at 1230 nM.
In the case of `O=C(c1cc(F)ccc1-n1nccn1)N1[C@@H]2CC[C@H]1[C@H](Nc1cnc(C(F)(F)F)cn1)C2` [Example 256, (5-fluoro-2-(2H-1,2,3-triazol-2-yl)phenyl)((1S,2R,4R)-2-((5-(trifluoromethyl)pyrazin-2-yl)amino)-7-azabicyclo[2.2.1]heptan-7-yl)methanone], in assay [1] (setting [3]), the Ki worked out at 1100 nM.
The same measure, in the same setting: the value for `O=C(c1cccc(F)c1-c1cnccn1)N1[C@@H]2CC[C@H]1[C@H](Nc1cnc(C(F)(F)F)cn1)C2` [Example 265, (3-fluoro-2-(pyrazin-2-yl)phenyl)-((1S,2R,4R)-2-((5-(trifluoromethyl)pyrazin-2-yl)amino)-7-azabicyclo[2.2.1]heptan-7-yl)methanone] was 188 nM.
Regarding `Cc1cccc(C(=O)N2[C@@H]3CC[C@H]2[C@H](Nc2cnc(C(F)(F)F)cn2)C3)c1-c1ncccn1` [Example 273, (3-methyl-2-(pyrimidin-2-yl)phenyl)((1S,2R,4R)-2-((5-(trifluoromethyl)pyrazin-2-yl)amino)-7-azabicyclo[2.2.1]heptan-7-yl)methanone], the Ki in assay [1] (setting [3]) is 328 nM.
As for `Cc1cccc(C(=O)N2[C@@H]3CC[C@H]2[C@H](Nc2ncc(C(F)(F)F)cn2)C3)c1-c1ncccn1` [Example 281, (3-methyl-2-(pyrimidin-2-yl)phenyl)((1S,2R,4R)-2-((5-(trifluoromethyl)pyrimidin-2-yl)amino)-7-azabicyclo[2.2.1]heptan-7-yl)methanone], in assay [1] (setting [3]), the Ki came to 1200 nM.
Regarding `Cc1cccc(C(=O)N2[C@@H]3CC[C@H]2[C@H](Nc2ncc(C(F)(F)F)cn2)C3)c1-c1ncco1` [Example 283, (3-methyl-2-(oxazol-2-yl)phenyl)((1S,2R,4R)-2-((5-(trifluoromethyl)pyrimidin-2-yl)amino)-7-azabicyclo[2.2.1]heptan-7-yl)methanone], the inhibitory constant (Ki) in assay [1] (setting [3]) worked out at 417 nM.
Still for that read-out and setting: the value for `COc1cccc(-c2ncccn2)c1C(=O)N1[C@@H]2CC[C@H]1[C@H](Nc1cnc(C(F)(F)F)cn1)C2` [Example 289, (2-methoxy-6-(pyrimidin-2-yl)phenyl)((1S,2R,4R)-2-((5-(trifluoromethyl)pyrazin-2-yl)amino)-7-azabicyclo[2.2.1]heptan-7-yl)methanone] was 173 nM.
The same measure, in the same setting: as for `O=C(c1c(F)cccc1-c1ncccn1)N1[C@@H]2CC[C@H]1[C@H](Nc1cnc(C(F)(F)F)cn1)C2` [Example 290, (2-fluoro-6-(pyrimidin-2-yl)phenyl)((1S,2R,4R)-2-((5-(trifluoromethyl)pyrazin-2-yl)amino)-7-azabicyclo[2.2.1]heptan-7-yl)methanone], the figure is 558 nM; as for `CCOc1ccc2cccnc2c1C(=O)N1[C@@H]2CC[C@H]1[C@H](Nc1cnc(C(F)(F)F)cn1)C2` [Example 291, (7-ethoxyquinolin-8-yl)((1S,2R,4R)-2-((5-(trifluoromethyl)pyrazin-2-yl)amino)-7-azabicyclo[2.2.1]heptan-7-yl)methanone], 425 nM; as for `Cc1cccc(C(=O)N2[C@@H]3CC[C@H]2[C@H](Nc2ncc(C(F)(F)F)cn2)C3)c1-c1ccccn1` [Example 293, (3-methyl-2-(pyridin-2-yl)phenyl)((1S,2R,4R)-2-((5-(trifluoromethyl)pyrimidin-2-yl)amino)-7-azabicyclo[2.2.1]heptan-7-yl)methanone], 1100 nM.
Same read-out and setting: the value for `O=C(c1cccc(F)c1-n1nccn1)N1[C@@H]2CC[C@H]1[C@H](Nc1ccc(C(F)(F)F)cn1)C2` [Example 294, (3-fluoro-2-(2H-1,2,3-triazol-2-yl)phenyl)((1S,2R,4R)-2-((5-(trifluoromethyl)pyridin-2-yl)amino)-7-azabicyclo[2.2.1]heptan-7-yl)methanone] was 1200 nM; that for `Cc1cccc(C(=O)N2[C@@H]3CC[C@H]2[C@H](Nc2ccc(C(F)(F)F)cn2)C3)c1-n1nccn1` [Example 295, (3-methyl-2-(2H-1,2,3-triazol-2-yl)phenyl)((1S,2R,4R)-2-((5-(trifluoromethyl)pyridin-2-yl)amino)-7-azabicyclo[2.2.1]heptan-7-yl)methanone] was 257 nM.
Consider `Cc1cccc(C(=O)N2[C@@H]3CC[C@H]2[C@H](Nc2ccc(C(F)(F)F)cn2)C3)c1-c1ncco1` [Example 296, (3-methyl-2-(oxazol-2-yl)phenyl)((1S,2R,4R)-2-((5-(trifluoromethyl)pyridin-2-yl)amino)-7-azabicyclo[2.2.1]heptan-7-yl)methanone], for which the inhibition constant Ki in assay [1] (setting [3]) amounted to 114 nM.
